Biological target: T1, human CCR-3 (Homo sapiens, UniProt P51677)
T1 construct: expressed in transfected cells; host or cells: rat basophil leukaemia (RBL-2H3) cells, membrane preparation
T1 sequence (P51677 1-355): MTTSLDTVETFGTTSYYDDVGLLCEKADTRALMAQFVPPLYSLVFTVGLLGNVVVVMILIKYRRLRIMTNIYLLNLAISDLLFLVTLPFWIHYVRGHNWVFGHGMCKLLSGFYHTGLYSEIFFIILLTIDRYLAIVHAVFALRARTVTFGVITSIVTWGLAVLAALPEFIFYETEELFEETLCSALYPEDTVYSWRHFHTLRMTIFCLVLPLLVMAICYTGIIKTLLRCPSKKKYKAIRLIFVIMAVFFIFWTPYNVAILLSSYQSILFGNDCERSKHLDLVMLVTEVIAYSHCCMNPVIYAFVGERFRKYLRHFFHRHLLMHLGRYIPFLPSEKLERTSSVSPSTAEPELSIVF
Assay: binding of [125I]-human eotaxin to human CCR3 (SPA, membranes of RBL-2H3 cells expressing CCR3)
Conditions: 4 hours at room temperature, read-out: IC50 value (inhibition of eotaxin binding to CCR3)
Protocol: In this assay the effect of the compounds of the present invention on the binding of human eotaxin to human CCR-3 is determined. Recombinant cells expressing human CCR3 are captured by wheatgerm agglutinin (WGA) polyvinyltoluidene (PVT) SPA beads (available from Amersham), through a specific interaction between the WGA and carbohydrate residues of glycoproteins on the surface of the cells. [^125I]-human eotaxin (available from Amersham) binds specifically to CCR3 receptors bringing the [^125I]-human eotaxin in close proximity to the SPA beads. Emitted […] from the [^125I]-human eotaxin excite, by its proximity, the fluorophore in the beads and produce light.
Preparation of Assay Buffer: 5.96 g HEPES and 7.0 g sodium chloride are dissolved in distilled H2O and 1M aqueous CaCl2 (1 ml) and 1M aqueous MgCl2 (5 ml) are added. The pH is adjusted to 7.6 with NaOH and the solution made to a final volume of 1 L using distilled H2O. 5 g of bovine serum albumin and 0.1 g NaN3 are dissolved in the solution and the resulting buffer stored at 4° C. […]
The assay is performed in a final volume of 250 μl per well of an Optiplate™ microplate (ex Canberra Packard). […] The resulting scintillations are counted using a Canberra Packard TopCount™ scintillation counter, each well being counted for 1 minute. […]

IC50 | SMILES
21 nM | COc1ccc(OC)c(NC(=O)C[n+]2cc(-c3ccc(Cl)c(Cl)c3)n3c2CCC3)c1 [Example 322]
23 nM | O=C(C[n+]1cc(-c2ccc(Cl)c(Cl)c2)n2c1CCC2)Nc1ccc2c(c1)OCCO2 [Example 341]

Source: patent US20080207718A1, “Use of Fused Imidazole Derivatives to Mediate Ccr3 Related Conditions” (priority 2005, published 2008)
